Consider six compounds from ChEMBL document CHEMBL1148157, “An analysis of cytotoxic botanical formulations used in the traditional medicine of ancient Persia as abortifacients” (J Nat Prod, 2004).

As usually defined, the pIC50 is the negative decadic logarithm of the IC50, by convention in mol/L. A higher pIC50 goes with a low IC50.

pIC50: −log10 of the molar value. ≈ marks a conversion by molar mass, not a printed value.

What all share (type): functional, cell-based
Assay [1] has as its system P388. Put plainly: Growth inhibition of mouse P388 cells.
Assay [2] deals with HT-29. Put plainly: Growth inhibition of human HT29 cells.
Assay [3] in a line: Growth inhibition of human CNS cancer cells. As to conditions: Cancer cell lines.
Assay [4] can be described thus: Growth inhibition of human colon cancer cells. As to conditions: Cancer cell lines.
Assay [5] can be described thus: Growth inhibition of human lung cancer cells. As to conditions: Cancer cell lines.
Assay [6] in a line: Growth inhibition of human breast cancer cells. As to conditions: Cancer cell lines.
The nature of assay [7]: Growth inhibition of human prostate cancer cells. As to conditions: cancer cell lines.

With `COc1cc([C@@H]2c3cc4c(c(O)c3C[C@H]3COC(=O)[C@@H]32)OCO4)cc(OC)c1OC` [BETA-PELTATIN A], the IC50 in assay [1] and in assay [2] was 2.5 ng/mL (≈ 6.03 nM) in each case.

Regarding `CC(=O)OC(C)(C)/C=C/C(=O)[C@](C)(O)[C@H]1[C@H](O)C[C@@]2(C)[C@@H]3CC=C4[C@H](C[C@H](O)C(=O)C4(C)C)[C@]3(C)C(=O)C[C@]12C` [CUCURBITACIN B], the pIC50 in assay [3], in assay [4], in assay [5] and in assay [6] was > 6.40 in each case.

For `CC(C)(O)/C=C/C(=O)[C@](C)(O)[C@H]1[C@H](O)C[C@@]2(C)[C@@H]3CC=C4[C@@H](C[C@H](O)C(=O)C4(C)C)[C@]3(C)C(=O)C[C@]12C` [CUCURBITACIN D], the pIC50 in assay [3], in assay [4], in assay [5] and in assay [6] was > 6.40 throughout.

`CC(=O)OC(C)(C)/C=C/C(=O)[C@](C)(O)[C@H]1[C@H](O)C[C@@]2(C)[C@@H]3CC=C4[C@@H](C=C(O)C(=O)C4(C)C)[C@]3(C)C(=O)C[C@]12C` [CUCURBITACIN E]: the pIC50 in assay [3], in assay [4], in assay [5] and in assay [6] was > 6.40 in each case. Further, in assay [7], the IC50 was 7 nmol.

With `CC(C)(O)/C=C/C(=O)[C@](C)(O)[C@H]1[C@H](O)C[C@@]2(C)[C@@H]3CC=C4[C@@H](C=C(O)C(=O)C4(C)C)[C@]3(C)C(=O)C[C@]12C` [CUCURBITACIN I], the pIC50 in assay [3], in assay [4], in assay [5] and in assay [6] was > 6.40 in each case.

Regarding `COc1cc([C@@H]2c3cc4c(cc3C[C@H]3COC(=O)[C@@H]32)OCO4)cc(OC)c1OC` [DESOXYPODOPHYLLOTOXIN], the IC50 in assay [1] and in assay [2] was 2.5 ng/mL (≈ 6.27 nM) in each case.
